Results as given in US9969695B2, “N-substituted imidazole carboxylic ester chiral compound containing an ether side chain, its preparation and application” (WEST CHINA HOSPITAL, SICHUAN UNIVERSITY, priority 2013, dated 2018).
“And” between values parts separate entries of the source, which are not always exact repeats. Equal entries are not always repeated. Structures can show the parent of a compound that is named as a salt. Where two headings read alike, the source gives them in different places.

Assays:
Format in all cases: in vivo
Male SD rats [1] = assay: ED50 by the sequential method, extinction of rat body-righting reflex; conditions: etomidate as Etomidate-Lipuro, extinction of body-righting reflex ≥30 s; for ED50: Rattus norvegicus, read-out: 50% effective dose (ED50)
Experimental: (§1) Male SD rats (250˜300 g) were used as an experimental animal, and 50% effective dose (ED50) was determined by the sequential method. Three compounds were dissolved in a solvent of DMSO, and etomidate was used as the commercially-available formulation (B BRAUN, Etomidate-Lipuro®, 20 mg/10 mL). Based on the initial dose of 1 mg/kg, other dosages were adjusted as the ratio of 0.8, and the ED50 values of the three compounds and etomidate were determined. Extinction time ≥30 s for the rat body-righting reflex was the positive marker while no disappearance of the righting reflex was considered invalid. Based on the experimental results, four cross-points were formed, and the ED50 values were calculated. […] Then, the respective 2ED50 values of the three compounds and etomidate were taken in an equivalent dose, which were administered via the rat tail vein. The preliminary effects were evaluated in the four rat groups, which were given the three compounds of Formulas (I), (IV), (V) and etomidate, respectively, with 10 rats in each group. […] The last time of the Formula (I) compound and etomidate was 5-6 min, but the last time of the Formulas (IV) and (V) compounds was 10-20 min. […] DMSO had no pharmacological effects, and no adverse effects were observed. The onset time, the last time, and the adverse effects (types, incidence rates) induced by the three compounds and etomidate are shown in the following table:
(§2) Male SD rats (250˜300 g) were used as an experimental animal, and 50% effective dose (ED50) was determined by the sequential method. Hydrochlorides of the three compounds were dissolved in the solvent of normal saline, and etomidate was used as the commercially-available formulation (B BRAUN, Etomidate-Lipuro®, 20 mg/10 mL). The initial dose was 1 mg/kg, and the ratio of dosage variation was 0.8, which was applied in the determination of ED50 values of Formula (I) hydrochloride, Formula (I) hydrobromide, Formula (I) trifluoroacetate, and etomidate. Extinction time (≥30 s) of the rat body-righting reflex was the positive marker while no disappearance of the reflex was considered invalid. Based on the experimental results, four cross-points were formed, and then ED50 values were calculated. […] Then, the respective 2ED50 values of the three compounds and etomidate were taken in an equivalent dose, which were administered via the rat tail vein. The preliminary effects were evaluated in the four rat groups, which were given the three compounds of Formulas (I) hydrochloride, Formula (I) hydrobromide, Formula (I) trifluoroacetate, and etomidate, respectively, with 10 rats in each group. […] Palinesthesia time was in arrange of 5-10 min. During the test period, no significant difference was found in the types and the incidence rates of adverse effects in each group. DMSO had no pharmacological effects, and no adverse effect was found. The onset time, the last time, and the types and the incidence rates of adverse effects induced by the three salt compounds and etomidate are shown in the following table: […]

Male SD rats [2] = assay: Onset time, last time, palinesthesia time and adverse effects at 2ED50 via the rat tail vein; conditions: for Incidence of adverse effect: Anal sphincter dilatation / Incidence of adverse effect: Bucking / Incidence of adverse effect: Hindlimb stiffness / Incidence of adverse effect: Muscle tremor / Incidence of adverse effect: Tic of limbs / Incidence of adverse effect: Vomiting / Onset time: 10 rats per group; for Last time: disappearance to recovery of body-righting reflex; for Palinesthesia tune / Palinesthesia time: recovery to full recovery of body-righting reflex
Experimental: as §1, §2

[3] = tested on: self-synthesis of adrenocortical hormone; assay: Increase degree of cortical hormone (cortisol, corticosterone) in blood serum after ACTH stimulation, ELISA; conditions: Beagle dogs; for Increase degree of corticosterone / Increase degree of cortisol: 2ED50, dexamethasone baseline, 1 h after ACTH
Experimental: Male Beagle dogs (10±2 kg) were selected as an experimental animal. After administration, the contents of corticosterone and cortisol in the blood serum of the Beagle dogs were determined by the ELISA kit and the enzyme-labelled instrument. The 20 Beagle dogs were divided into five groups, with four dogs in each group. After respective administration of dexamethasone (0.01 mg/kg), the level of adrenal cortex in the dog body was lowered to the baseline, and those levels of corticosterone and cortisol at this time were used as the base value (baseline). […] After 10 min, ACTH (adrenocortical hormone) was given to stimulate and cause an increased level of cortex in the dog body. One hour after administration of ACTH, both corticosterone and cortisol levels in the blood serum of the Beagle dogs were determined, and the ratio of the peak value to the base value of the cortex levels was calculated. This ratio indicated the increase degree of the cortical hormone. A greater degree indicated a less inhibitory effect of the medicine on the cortical hormone. After administration, compounds of Formulas (I), (IV) and (V), DMSO, and the increase degree of the cortical hormone followed by stimulation of ACTH are shown in the following table:
Male Beagle dogs (10±2 kg) were selected as an experimental animal. After administration, the contents of corticosterone and cortisol in the blood serum of the Beagle dogs were determined by the ELISA kit and the enzyme-labelled instrument. The 20 Beagle dogs were divided into five groups, with four dogs in each group. After respective administration of dexamethasone (0.01 mg/kg), the level of adrenal cortex in the dog body was lowered to the baseline, and the levels of corticosterone and cortisol at this time were used as the baseline. Then, the equivalent doses (2ED50) of the compounds of Formula (I) hydrochloride (3.62 mg/kg), hydrobromide (3.86 mg/kg), trifluoroacetate (4.66 mg/kg), the positive control medicine Etomidate-Lipuro® (0.9 mg/kg), and the equal-volume of solvent DMSO were respectively administrated into the dogs of the five groups. After 10 min, ACTH was given to stimulate and cause the cortex levels increase in the dog body. One hour after administration of ACTH, both the cortical hormone levels were determined, and the ratio of the peak value to the baseline of cortex levels was calculated. This ratio indicated the increase degree of the cortical hormone. A greater degree of increase indicated a less inhibitory effect of the medicine on the cortical hormone. After administrations, the three salts of the Formula (I) compound, DMSO, the increase degree of the cortical hormone followed by stimulation of ACTH are shown in the following table: […]

[4] = Example 10, ratio of peak value to base value
[5] = Example 9, 2ED50 via tail vein, listed as Formula (I) hydrobromide
[6] = Example 11, ratio of peak value to baseline
[7] = Example 9, 2ED50 via tail vein, listed as Formula (I) hydrochloride
[8] = Example 9, 2ED50 via tail vein, listed as Formula (I) trifluoroacetate

| Compound | ED50 (Male SD rats [1]; Example 8, compounds in DMSO) | sedative-hypnotic and general anesthetic effects (conclusion in words) (Male SD rats [2]; Example 8) | types and incidence rates of the adverse effects (in words) (Male SD rats [2]; Example 8, 2ED50 via tail vein) | Incidence of adverse effect: Anal sphincter dilatation (Male SD rats [2]; Example 8, 2ED50 via tail vein) | Incidence of adverse effect: Bucking (Male SD rats [2]; Example 8, 2ED50 via tail vein) | Incidence of adverse effect: Hindlimb stiffness (Male SD rats [2]; Example 8, 2ED50 via tail vein) | Incidence of adverse effect: Muscle tremor (Male SD rats [2]; Example 8, 2ED50 via tail vein) | Onset time (Male SD rats [2]; Example 8, 2ED50 via tail vein) | Last time (Male SD rats [2]; Example 8, 2ED50 via tail vein) | Palinesthesia tune (Male SD rats [2]; Example 8, 2ED50 via tail vein) | Increase degree of corticosterone [3, 4] | Increase degree of cortisol [3, 4] | sedative-hypnotic and general anesthetic effects (conclusion in words) (Male SD rats [2]; Example 9) | Incidence of adverse effect: Muscle tremor (Male SD rats [2]; Example 9, 2ED50 via tail vein) | Onset time (Male SD rats [2]; Example 9, 2ED50 via tail vein) | Last time (Male SD rats [2]; Example 9, 2ED50 via tail vein) | Palinesthesia time (Male SD rats [2]; Example 9, 2ED50 via tail vein) | cortical hormone increase after stimulation by ACTH (conclusion in words) ([3]; Example 11) | Increase degree of corticosterone [3, 6] | Increase degree of cortisol [3, 6] | further results |
| --- | --- | --- | --- | --- | --- | --- | --- | --- | --- | --- | --- | --- | --- | --- | --- | --- | --- | --- | --- | --- | --- |
| COCCOC(=O)c1cncn1C(C)c1ccccc1 (racemic) [Compound V] | 10.4 mg/kg | lower potency, elongated onset time, extended last time, and increased types and incidence rates of adverse effects | obviously increased | (2/10), 20%; | Bucking (4/10), 40% | 20%; | 60%; | a little slower action and 1.0 ± 0.6 min | 10.8 ± 3.5 min | 15.1 ± 2.6 min | 3.18 ± 1.15 | 5.17 ± 2.28 |  |  |  |  |  |  |  |  | Incidence of adverse effect: Tic of limbs (Male SD rats [2]; Example 8, 2ED50 via tail vein): Tic of limbs (5/10), 50%;; Incidence of adverse effect: Vomiting (Male SD rats [2]; Example 8, 2ED50 via tail vein): Vomiting (5/10), 50%; |
| COCCOC(=O)c1cncn1[C@@H](C)c1ccccc1 [Compound IV] | 7.46 mg/kg | lower potency, elongated onset time, extended last time, and increased types and incidence rates of adverse effects | obviously increased | (5/10), 50%; | Bucking (6/10), 60% | 50%; | 100%; | 2.2 ± 0.8 min | 20.3 ± 4.6 min | 21.4 ± 2.3 min | 1.19 ± 0.87 | 3.32 ± 2.36 |  |  |  |  |  |  |  |  | Incidence of adverse effect: Tic of limbs (Male SD rats [2]; Example 8, 2ED50 via tail vein): Tic of limbs (7/10), 70%;; Incidence of adverse effect: Vomiting (Male SD rats [2]; Example 8, 2ED50 via tail vein): Vomiting (7/10), 70%;; Onset time (Male SD rats [2]; Example 8, 2ED50 via tail vein, listed as Formula (IV)): a little slower action |
| COCCOC(=O)c1cncn1[C@H](C)c1ccccc1 [Compound I] | 2.1 mg/kg | good sedative-hypnotic and general anesthetic effects |  |  |  |  | 70% | Immediate | 5.8 ± 0.9 min | 4.8 ± 1.3 min | 11.46 ± 4.30 | 19.88 ± 19.8 |  |  |  |  |  |  |  |  | Onset time (Male SD rats [2]; Example 8, 2ED50 via tail vein, listed as Formula (I) compound): immediate action; inhibition on cortical hormone (conclusion in words) ([3]; Example 10, after stimulation by ACTH): obviously reduced when compared with that of the control medicine etomidate |
| COCCOC(=O)c1cncn1[C@H](C)c1ccccc1 [Hydrobromide of Formula (I) compound] |  |  |  |  |  |  |  |  |  |  |  |  | good sedative-hypnotic and general anesthetic effects | 50% | Immediate | 4.6 ± 1.1 min | 5.8 ± 1.2 min | lower than that in the blank group of the dogs, but obviously higher than that in the positive medicine etomidate group of the dogs | 12.36 ± 6.65 | 29.14 ± 11.86 | 50% effective dose (ED50) (Male SD rats [1]; Example 9, salts in normal saline, listed as Formula (I) hydrobromide): 3.09 mg/kg; Onset time (Male SD rats [2]; [5]): immediate action; Last time (Male SD rats [2]; [5]): 5 to 6 min |
| COCCOC(=O)c1cncn1[C@H](C)c1ccccc1 [Hydrochloride of Formula (I) compound] |  |  |  |  |  |  |  |  |  |  |  |  | good sedative-hypnotic and general anesthetic effects | 60% | Immediate | 5.8 ± 0.7 min | 5.6 ± 1.8 min | lower than that in the blank group of the dogs, but obviously higher than that in the positive medicine etomidate group of the dogs | 18.14 ± 5.66 | 25.36 ± 14.77 | ED50 (Male SD rats [1]; Example 9, salts in normal saline): 2.58 mg/kg; Onset time (Male SD rats [2]; [7]): immediate action; Last time (Male SD rats [2]; [7]): 5 to 7 min |
| COCCOC(=O)c1cncn1[C@H](C)c1ccccc1 [Trifluoroacetate of Formula (I) compound] |  |  |  |  |  |  |  |  |  |  |  |  | good sedative-hypnotic and general anesthetic effects | (5/10), 50% | Immediate | 3.6 ± 1.3 min | 8.2 ± 3.3 min | lower than that in the blank group of the dogs, but obviously higher than that in the positive medicine etomidate group of the dogs | 13.64 ± 4.22 | 26.14 ± 13.89 | 50% effective dose (ED50) (Male SD rats [1]; Example 9, salts in normal saline, listed as Formula (I) trifluoroacetate): 3.61 mg/kg; Onset time (Male SD rats [2]; [8]): immediate action; Last time (Male SD rats [2]; [8]): 4 to 7 min |
